Assay results as given in PubChem BioAssay (NCI).
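At the GI50, growth is halved. TGI marks complete inhibition of growth.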

Tests used:
Test in all cases: NCI-60 cell line screen, 384-well format
SK-MEL-28 melanoma = test system: SK-MEL-28 melanoma
COLO 205 colon = test system: COLO 205 colon
MALME-3M melanoma = test system: MALME-3M melanoma
NCI-H322M lung = test system: NCI-H322M lung
CAKI-1 renal = test system: CAKI-1 renal
NCI-H522 lung = test system: NCI-H522 lung
HOP-92 NSCLC = test system: HOP-92 NSCLC
HCC-2998 colon = test system: HCC-2998 colon
SF-539 CNS = test system: SF-539 CNS
DU-145 prostate = test system: DU-145 prostate
OVCAR-8 ovarian = test system: OVCAR-8 ovarian
HL-60(TB) leukemia = test system: HL-60(TB) leukemia
UACC-257 melanoma = test system: UACC-257 melanoma
SK-OV-3 ovarian = test system: SK-OV-3 ovarian
EKVX NSCLC = test system: EKVX NSCLC
UACC-62 melanoma = test system: UACC-62 melanoma
SF-295 CNS = test system: SF-295 CNS
OVCAR-5 ovarian = test system: OVCAR-5 ovarian
BT-549 breast = test system: BT-549 breast
HT29 colon = test system: HT29 colon
NCI-H23 lung = test system: NCI-H23 lung
MDA-MB-468 breast = test system: MDA-MB-468 breast
786-0 renal = test system: 786-0 renal
SNB-19 CNS = test system: SNB-19 CNS
SK-MEL-5 melanoma = test system: SK-MEL-5 melanoma
SNB-75 CNS = test system: SNB-75 CNS
MCF7 breast = test system: MCF7 breast
A498 renal = test system: A498 renal
T-47D breast = test system: T-47D breast
CCRF-CEM leukemia = test system: CCRF-CEM leukemia
IGROV1 ovarian = test system: IGROV1 ovarian
MDA-MB-231 breast = test system: MDA-MB-231 breast
HCT-116 colon = test system: HCT-116 colon
RPMI-8226 leukemia = test system: RPMI-8226 leukemia
SW-620 colon = test system: SW-620 colon
NCI-H460 NSCLC = test system: NCI-H460 NSCLC
OVCAR-4 ovarian = test system: OVCAR-4 ovarian
A549 NSCLC = test system: A549 NSCLC
SF-268 CNS = test system: SF-268 CNS
SN12C renal = test system: SN12C renal
M14 melanoma = test system: M14 melanoma
ACHN renal = test system: ACHN renal
HOP-62 NSCLC = test system: HOP-62 NSCLC
KM12 colon = test system: KM12 colon
HS 578T breast = test system: HS 578T breast
LOX IMVI melanoma = test system: LOX IMVI melanoma
TK-10 renal = test system: TK-10 renal
MDA-MB-435 melanoma = test system: MDA-MB-435 melanoma
OVCAR-3 ovarian = test system: OVCAR-3 ovarian
RXF 393 renal = test system: RXF 393 renal
HCT-15 colon = test system: HCT-15 colon
PC-3 prostate = test system: PC-3 prostate
K-562 leukemia = test system: K-562 leukemia
NCI/ADR-RES ovarian = test system: NCI/ADR-RES ovarian
NCI-H226 lung = test system: NCI-H226 lung
U251 glioblastoma = test system: U251 glioblastoma
UO-31 renal = test system: UO-31 renal
MOLT-4 leukemia = test system: MOLT-4 leukemia

CN1CCN(CCOc2cc(OC3CCOCC3)c3c(Nc4c(Cl)ccc5c4OCO5)ncnc3c2)CC1
GI50 (SK-MEL-28 melanoma): 14.7 µM
TGI (SK-MEL-28 melanoma): 27.9 µM
GI50 (COLO 205 colon): 14.9 µM
TGI (COLO 205 colon): 28.1 µM
GI50 (MALME-3M melanoma): 14.1 µM
TGI (MALME-3M melanoma): 27.1 µM
GI50 (NCI-H322M lung): 0.387 µM
TGI (NCI-H322M lung): 10.3 µM
GI50 (CAKI-1 renal): 0.514 µM
TGI (CAKI-1 renal): 13.6 µM
GI50 (NCI-H522 lung): 0.179 µM
TGI (NCI-H522 lung): 10.7 µM
GI50 (HOP-92 NSCLC): 2.33 µM
TGI (HOP-92 NSCLC): 17.4 µM
GI50 (HCC-2998 colon): 5.25 µM
TGI (HCC-2998 colon): 19 µM
GI50 (SF-539 CNS): 10.7 µM
TGI (SF-539 CNS): 22.6 µM
GI50 (DU-145 prostate): 5.09 µM
TGI (DU-145 prostate): 18.7 µM
GI50 (OVCAR-8 ovarian): 8.72 µM
TGI (OVCAR-8 ovarian): 21.3 µM
GI50 (HL-60(TB) leukemia): 22.3 µM
TGI (HL-60(TB) leukemia): 36.8 µM
GI50 (UACC-257 melanoma): 2.53 µM
TGI (UACC-257 melanoma): 10.5 µM
GI50 (SK-OV-3 ovarian): 0.317 µM
TGI (SK-OV-3 ovarian): 13 µM
GI50 (EKVX NSCLC): 0.552 µM
TGI (EKVX NSCLC): 11.9 µM
GI50 (UACC-62 melanoma): 14.1 µM
TGI (UACC-62 melanoma): 27.1 µM
GI50 (SF-295 CNS): 11.4 µM
TGI (SF-295 CNS): 23.5 µM
GI50 (OVCAR-5 ovarian): 0.679 µM
TGI (OVCAR-5 ovarian): 12 µM
GI50 (BT-549 breast): 2.77 µM
TGI (BT-549 breast): 16.2 µM
GI50 (HT29 colon): 1.43 µM
TGI (HT29 colon): 8.86 µM
GI50 (NCI-H23 lung): 5.77 µM
TGI (NCI-H23 lung): 20.9 µM
GI50 (MDA-MB-468 breast): 0.403 µM
TGI (MDA-MB-468 breast): 1.95 µM
GI50 ([…]-0 renal): 0.943 µM
TGI (786-0 renal): 15.2 µM
GI50 (SNB-19 CNS): 9.59 µM
TGI (SNB-19 CNS): 29 µM
GI50 (SK-MEL-5 melanoma): 10.8 µM
TGI (SK-MEL-5 melanoma): 22.8 µM
GI50 (SNB-75 CNS): 0.233 µM
TGI (SNB-75 CNS): 0.835 µM
GI50 (MCF7 breast): 9.74 µM
TGI (MCF7 breast): 21.7 µM
GI50 (A498 renal): 1.95 µM
TGI (A498 renal): 12.6 µM
GI50 (T-47D breast): 0.171 µM
TGI (T-47D breast): 3.06 µM
GI50 (CCRF-CEM leukemia): 14.3 µM
TGI (CCRF-CEM leukemia): 27.4 µM
GI50 (IGROV1 ovarian): 0.0603 µM
TGI (IGROV1 ovarian): 0.295 µM
GI50 (MDA-MB-231 breast): 2.83 µM
TGI (MDA-MB-231 breast): 17.6 µM
GI50 (HCT-116 colon): 10.7 µM
TGI (HCT-116 colon): 22.5 µM
GI50 (RPMI-8226 leukemia): 14.4 µM
TGI (RPMI-8226 leukemia): 27.5 µM
GI50 (SW-620 colon): 19.3 µM
TGI (SW-620 colon): 33.5 µM
GI50 (NCI-H460 NSCLC): 12.7 µM
TGI (NCI-H460 NSCLC): 25.5 µM
GI50 (OVCAR-4 ovarian): 13 µM
TGI (OVCAR-4 ovarian): 26.1 µM
GI50 (A549 NSCLC): 1.45 µM
TGI (A549 NSCLC): 17.9 µM
GI50 (SF-268 CNS): 0.55 µM
TGI (SF-268 CNS): 3.18 µM
GI50 (SN12C renal): 0.377 µM
TGI (SN12C renal): 12.8 µM
GI50 (M14 melanoma): 15.2 µM
TGI (M14 melanoma): 28.6 µM
GI50 (ACHN renal): 0.317 µM
TGI (ACHN renal): 12.6 µM
GI50 (HOP-62 NSCLC): 6.29 µM
TGI (HOP-62 NSCLC): 19.7 µM
GI50 (KM12 colon): 0.658 µM
TGI (KM12 colon): 14 µM
GI50 (HS 578T breast): 0.387 µM
TGI (HS 578T breast): 4.35 µM
GI50 (LOX IMVI melanoma): 0.448 µM
TGI (LOX IMVI melanoma): 7 µM
GI50 (TK-10 renal): 1.67 µM
TGI (TK-10 renal): 5.54 µM
GI50 (MDA-MB-435 melanoma): 16.2 µM
TGI (MDA-MB-435 melanoma): 29.8 µM
GI50 (OVCAR-3 ovarian): 1.14 µM
TGI (OVCAR-3 ovarian): 16.8 µM
GI50 (RXF 393 renal): 0.215 µM
TGI (RXF 393 renal): 2.94 µM
GI50 (HCT-15 colon): 3.68 µM
TGI (HCT-15 colon): 18.9 µM
GI50 (PC-3 prostate): 14.1 µM
TGI (PC-3 prostate): 35 µM
GI50 (K-562 leukemia): 0.132 µM
TGI (K-562 leukemia): 0.306 µM
GI50 (NCI/ADR-RES ovarian): 10.6 µM
TGI (NCI/ADR-RES ovarian): 23.8 µM
GI50 (NCI-H226 lung): 12.5 µM
TGI (NCI-H226 lung): 26.6 µM
GI50 (U251 glioblastoma): 6.67 µM
TGI (U251 glioblastoma): 19.9 µM
GI50 (UO-31 renal): 0.446 µM
TGI (UO-31 renal): 15.4 µM
GI50 (MOLT-4 leukemia): 8.27 µM
TGI (MOLT-4 leukemia): 21.2 µM
